Test systems include 786-0 renal; CCRF-CEM leukemia; HS 578T breast; HT29 colon; KM12 colon; LOX IMVI melanoma; MCF7 breast; NCI-H23 lung; OVCAR-4 ovarian; SF-268 CNS; SK-MEL-2 melanoma; SK-MEL-28 melanoma; U251 CNS; NCI-H522 lung; HL-60(TB) leukemia.
What all share (experiment): NCI-60 cell line screen, 48 h

Each structure is given as a SMILES string.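 These data come from cells grown in 96-well plates and exposed to compound for 48 hours at five concentrations. The concentration for 50% growth inhibition is given as GI50. The concentration for full growth arrest is given as TGI.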

Here are results for 10 molecules from PubChem BioAssay (NCI).

Take `CCOC(=O)c1c(-c2ccc(Cl)cc2)c(C#N)c(=S)n(C2OC(CO)C(O)C(O)C2O)c1-c1ccccc1` (configuration not stated): the TGI in the test with 786-0 renal was 75.1 µM; with CCRF-CEM leukemia, 53.9 µM; in the test on HS 578T breast, 58.6 µM; in the test with HT29 colon it was 36.2 µM; in the test on KM12 colon, greater than 100 µM; in the test on LOX IMVI melanoma, 33.5 µM. The TGI in the test with MCF7 breast is 50.5 µM; in the test on NCI-H23 lung, 72.7 µM; with OVCAR-4 ovarian, greater than 100 µM; in the test with SF-268 CNS, 55.9 µM; in the test with SK-MEL-2 melanoma, 50.2 µM; with SK-MEL-28 melanoma, 38.7 µM. This molecule came in with a TGI in the test on U251 CNS of 32 µM.
With `COCC1OCCN1C` (configuration not stated), the TGI in the test on 786-0 renal, in the test with CCRF-CEM leukemia, with HS 578T breast, in the test on HT29 colon, in the test with KM12 colon and in the test with LOX IMVI melanoma was greater than 100 µM throughout. In addition, the TGI in the test on MCF7 breast, with NCI-H23 lung, in the test with NCI-H522 lung, in the test on OVCAR-4 ovarian, with SF-268 CNS and with SK-MEL-2 melanoma was greater than 100 µM throughout. Moreover, in the test with U251 CNS, the TGI is greater than 100 µM.
As for `COC(=O)CC1CN(C(=O)OCc2ccccc2)C(C)(C)O1` (configuration not stated), the TGI with 786-0 renal, with CCRF-CEM leukemia, in the test with HL-60(TB) leukemia, in the test with KM12 colon, in the test with LOX IMVI melanoma and in the test with MCF7 breast was greater than 100 µM throughout. The TGI in the test with NCI-H23 lung, with NCI-H522 lung, in the test with OVCAR-4 ovarian, with SK-MEL-2 melanoma, with SK-MEL-28 melanoma and with U251 CNS was greater than 100 µM in each case.
`CC(C)CC(NC(=O)OCc1ccccc1)C(=O)NCCCCC(N)C(=O)NC(CCCCNC(=O)C(CC(C)C)NC(=O)OCc1ccccc1)C(=O)NC(CCCCNC(=O)C(CC(C)C)NC(=O)OCc1ccccc1)C(=O)NC(CCCCNC(=O)C(CC(C)C)NC(=O)OCc1ccccc1)C(=O)NC(CCCCNC(=O)C(CC(C)C)NC(=O)OCc1ccccc1)C(=O)NC(CCCCNC(=O)C(CC(C)C)NC(=O)OCc1ccccc1)C(=O)O` (configuration not stated): the TGI in the test with 786-0 renal, in the test on CCRF-CEM leukemia, in the test on HL-60(TB) leukemia, with HT29 colon, in the test on LOX IMVI melanoma and in the test on MCF7 breast was greater than 100 µM in each case. The TGI in the test on NCI-H23 lung, with NCI-H522 lung, in the test with OVCAR-4 ovarian, in the test on SK-MEL-2 melanoma and in the test on U251 CNS was greater than 100 µM throughout.
With `CSC1=N/C(=C\c2ccc(Cl)cc2)C(=O)N1CN1CCOCC1`, the TGI in the test on 786-0 renal is greater than 100 µM; in the test with CCRF-CEM leukemia it was greater than 100 µM; with HS 578T breast, greater than 100 µM; with HT29 colon, 94.4 µM; in the test on KM12 colon it was greater than 100 µM; in the test with LOX IMVI melanoma, greater than 100 µM. The TGI in the test on MCF7 breast was greater than 100 µM; with NCI-H23 lung, greater than 100 µM; in the test with NCI-H522 lung, greater than 100 µM; in the test with OVCAR-4 ovarian, 61.6 µM; with SF-268 CNS, greater than 100 µM; in the test on SK-MEL-2 melanoma, greater than 100 µM. The TGI with SK-MEL-28 melanoma and in the test on U251 CNS was greater than 100 µM each time.
On to `CC(=O)CCC(=O)CC(O)(C(F)(F)F)C(F)(F)F`, for which the TGI amounted to 30.2 µM with 786-0 renal; 51 µM in the test with CCRF-CEM leukemia; 38.1 µM in the test on HL-60(TB) leukemia; 38.5 µM with HS 578T breast; 34.7 µM with HT29 colon; 31.1 µM with KM12 colon. Moreover, the TGI with MCF7 breast came to 37.1 µM; with NCI-H23 lung, 43.2 µM; in the test on OVCAR-4 ovarian, 37 µM; in the test on SF-268 CNS, 44.6 µM; in the test with SK-MEL-28 melanoma it was 39.6 µM; in the test on U251 CNS, 33.2 µM.
Regarding `CO[C@H]1C[C@@H]2CC[C@@H](C)[C@@](O)(O2)C(=O)C(=O)N2CCCC[C@H]2C(=O)O[C@H]([C@H](C)C[C@@H]2CC[C@@H](OC(=O)C(C)(CO)CO)[C@H](OC)C2)CC(=O)[C@H](C)/C=C(\C)[C@@H](O)[C@@H](OC)C(=O)[C@H](C)C[C@H](C)/C=C/C=C/C=C/1C`, the TGI was greater than 100 µM in the test with 786-0 renal; 6.31 µM in the test on HL-60(TB) leukemia; 17.2 µM in the test on HS 578T breast; greater than 100 µM in the test on HT29 colon; greater than 100 µM in the test with KM12 colon; greater than 75.9 µM in the test with LOX IMVI melanoma. The TGI in the test on NCI-H23 lung is greater than 100 µM; with NCI-H522 lung, greater than 49.6 µM; in the test with SF-268 CNS, greater than 85.7 µM; in the test on SK-MEL-2 melanoma it was greater than 55.1 µM; in the test on SK-MEL-28 melanoma, greater than 100 µM; in the test on U251 CNS, greater than 47.4 µM. The GI50 is 182 nM in the test with HT29 colon; 2170 nM in the test with KM12 colon; 1340 nM in the test with NCI-H23 lung; 121 nM with NCI-H522 lung; 2990 nM in the test with SF-268 CNS.
`C=C(CO)[C@H]1CC/C(C)=C/CC/C(C)=C/C/C=C(\C)[C@H](O)C1`: the TGI was 57.5 µM in the test on 786-0 renal; greater than 100 µM in the test with CCRF-CEM leukemia; 74.1 µM in the test on HS 578T breast; 35 µM with HT29 colon; 29.5 µM with KM12 colon; 73.8 µM in the test with LOX IMVI melanoma. Moreover, the TGI is 60.8 µM in the test on MCF7 breast; 86.9 µM with NCI-H23 lung; 32.1 µM with NCI-H522 lung; greater than 100 µM in the test on OVCAR-4 ovarian; 51.4 µM in the test with SF-268 CNS; 51.5 µM in the test on SK-MEL-2 melanoma. Besides, the values for the TGI with SK-MEL-28 melanoma and with U251 CNS were 31.2 µM and 36 µM, respectively.
On to `CC(C)CC(=O)OC[n+]1cccc(-c2c(COC(=O)NC(C)C)c(COC(=O)NC(C)C)c3n2CCC3)c1`, for which the TGI with 786-0 renal is 97.7 µM; in the test on CCRF-CEM leukemia, greater than 100 µM; in the test on HS 578T breast, greater than 100 µM; with HT29 colon, greater than 100 µM; in the test with KM12 colon it was greater than 100 µM; in the test with LOX IMVI melanoma, greater than 100 µM. Moreover, the TGI with MCF7 breast was greater than 100 µM; in the test with NCI-H23 lung it was greater than 100 µM; with NCI-H522 lung it was 49.2 µM; in the test with OVCAR-4 ovarian, greater than 100 µM; in the test with SF-268 CNS it was greater than 100 µM; with SK-MEL-2 melanoma, greater than 100 µM. In addition, the TGI in the test on SK-MEL-28 melanoma and in the test with U251 CNS was greater than 100 µM in each case.
On to `C=CCNC(NCC=C)=C(C(Cl)=C(Cl)Cl)[N+](=O)[O-]`, for which the TGI in the test on 786-0 renal is greater than 100 µM; with CCRF-CEM leukemia it was greater than 100 µM; in the test on HS 578T breast, 54 µM; in the test with HT29 colon, greater than 100 µM; with KM12 colon, greater than 100 µM; in the test with MCF7 breast, greater than 100 µM. Besides, the TGI in the test with NCI-H23 lung, in the test with OVCAR-4 ovarian, with SF-268 CNS, in the test on SK-MEL-2 melanoma, in the test on SK-MEL-28 melanoma and in the test on U251 CNS was greater than 100 µM throughout.
